Source: article PMC6151508, “Development of Novel Nrf2/ARE Inducers Bearing Pyrazino[2,1-a]isoquinolin Scaffold with Potent In Vitro Efficacy and Enhanced Physicochemical Properties” (Molecules : A Journal of Synthetic Chemistry and Natural …, 2017)
Where a name gives a salt, the structure may show the parent alone.

Assays:
[1] = system: antioxidant response element (ARE); assay: ARE luciferase reporter assay in HepG2-ARE-C8 cells; assay type: cell-based; conditions: HepG2-ARE-C8, 12 h of treatment, mean ± SD n = 3, read-out: ARE Inductivity in Luciferase Reporter Assay (induction fold)
Method: (§1) All the derivatives were evaluated for their ability to induce ARE in HepG2-ARE-C8 cell (HepG2 cells stably transfected with a luciferase reporter) by ARE luciferase reporter assay, and they were compared to the lead compound 2. At the same time, cytotoxicity studies were performed by the MTT assay against the HCT116 cells. The results of cytotoxic activity in vitro were expressed as the IC50 [18]. Because those compounds were designed for chemoprevention, they should not be cytotoxic.
HepG2-ARE-C8 cells (4 × 10^4 cells/well) were incubated overnight in 96-well plates, and then treated with different concentrations of test compounds. tBHQ was used as a positive control, DMSO was used as a negative control, and the luciferase cell culture lysis reagent was used as a blank. The medium was removed after 12 h treatment. Then, the cells were harvested in the luciferase cell culture lysis reagent together with 100 μL of cold PBS. Then, centrifuging the solution and 20 μL of the supernatant was used for determining the luciferase activity. The luciferase activity was measured by a Luminoskan Ascent (Thermo Scientific, Waltham, MA, USA). The data were obtained in triplicate and expressed as fold induction over the control. Induction fold = (RLUtest − RLUblank)/(RLUDMSOcontrol − RLUblank). RLU = relative light unit l.

[2] = MTT cell viability (cytotoxicity) assay; assay type: cell-based; conditions: human, HCT116 cells
Method: as §1
Cell viabilities were determined by using 3-[4,5-dimethylthiazol-2-yl]-2,5-diphenyltetrazolium bromide (MTT) assay. MTT was dissolved in (phosphate buffered solution) PBS to a concentration of 5 mg/mL. HCT116 cells (8 × 10^3 cells/well) were plated in 96-well plates and incubated overnight. Different concentrations of test compounds were added to each cell for 24 h at 37 °C, and the 20 μL MTT solution was added and incubated for an additional 4 h. Then, 100 μL of DMSO was added to dissolve formazan precipitate after the solution was removed. The OD value was determined at 570 nm by Elx800 absorbance microplate reader (BioTek, Winooski, VT, USA). IC50 value (concentration at which cell survival equals 50% of control) = […].

| Compound | fold induction at 0.1 µM [1] | fold induction at 1 µM [1] | fold induction at 5 µM [1] | fold induction at 10 µM [1] | fold induction at 50 µM [1] | fold induction at 100 µM [1] | IC50 at 24 h [2] | melting point |
| --- | --- | --- | --- | --- | --- | --- | --- | --- |
| O=C(C=C1NCC2c3ccccc3CCN2C1=O)C1CCCCC1 (centres unmarked) [Compound 2e, 3-(2-cyclohexyl-2-oxoethylidene)-1,2,3,6,7,11b-hexahydro-4H-pyrazino[2,1-a]isoquinolin-4-one] | 1.92 ± 0.82 | 2.17 ± 1.05 | 3.03 ± 0.68 | 3.49 ± 0.64 | 3.92 ± 0.53 | 8.31 ± 0.25 | > 300 µM | 203 to 205 °C |
| O=C(C=C1NCC2CCCCN2C1=O)c1cccc([N+](=O)[O-])c1 (centres unmarked) [Compound 3d, 3-(2-(3-nitrophenyl)-2-oxoethylidene)octahydro-4H-pyrido[1,2-a]pyrazin-4-one] | 1.96 ± 0.88 | 3.85 ± 1 | 12 ± 2.55 | 19.5 ± 3.09 | 47.6 ± 3.54 | 8.66 ± 3.27 | 181 µM | 174 to 176 °C |
| Nc1ccc(C(=O)C=C2NCC3c4ccccc4CCN3C2=O)cc1 (centres unmarked) [Compound 1b, 3-(2-(4-aminophenyl)-2-oxoethylidene)-1,2,3,6,7,11b-hexahydro-4H-pyrazino[2,1-a]isoquinolin-4-one] | 1.26 ± 0.28 | 1.26 ± 0.73 | 2.78 ± 0.29 | 3.45 ± 0.03 | 2.75 ± 0.68 | 2.68 ± 0.31 | > 300 µM | 238 to 240 °C |
| O=C(C=C1NCC2c3ccccc3CCN2C1=O)c1cnc2ccccc2c1 (centres unmarked) [Compound 2h, 3-(2-oxo-2-(quinolin-3-yl)ethylidene)-1,2,3,6,7,11b-hexahydro-4H-pyrazino[2,1-a]isoquinolin-4-one] | 2.06 ± 0.98 | 3.4 ± 0.02 | 3.62 ± 0.29 | 4.59 ± 0.14 | 4.38 ± 1.94 | 4.98 ± 0.53 | 92.4 µM | 245 to 247 °C |
| O=C(C=C1NCC2CCCCN2C1=O)c1cccc(Cl)c1 (centres unmarked) [Compound 3c, 3-(2-(3-chlorophenyl)-2-oxoethylidene)octahydro-4H-pyrido[1,2-a]pyrazin-4-one] | 1.85 ± 0.21 | 8.41 ± 0.04 | 10.2 ± 3.44 | 11.4 ± 1.12 | 1.13 ± 1.03 | 1.33 ± 0.19 | 174 µM | 157 to 159 °C |
| O=C(C=C1NCC2c3ccccc3CCN2C1=O)c1c[nH]c2ccccc12 (centres unmarked) [Compound 2g, 3-(2-(1H-indol-3-yl)-2-oxoethylidene)-1,2,3,6,7,11b-hexahydro-4H-pyrazino[2,1-a]isoquinolin-4-one] | 1.27 ± 0.52 | 2.31 ± 0.24 | 4.68 ± 0.29 | 5.84 ± 0.07 | 14.5 ± 0.36 | 9.69 ± 0.8 | > 300 µM | 270 to 272 °C |
| O=C(C=C1NCC2CCCCN2C1=O)c1cccs1 (centres unmarked) [Compound 3h, 3-(2-oxo-2-(thiophen-2-yl)ethylidene)octahydro-4H-pyrido[1,2-a]pyrazin-4-one] | 2.06 ± 0.22 | 2.12 ± 0.31 | 8.3 ± 2.55 | 10.5 ± 3.82 | 28.9 ± 0.46 | 1.63 ± 0.25 | > 300 µM | 182 to 184 °C |
| O=C(C=C1NCC2CCCCN2C1=O)c1ccc(-c2ccccc2)cc1 (centres unmarked) [Compound 3f, 3-(2-([1,1′-biphenyl]-4-yl)-2-oxoethylidene)octahydro-4H-pyrido[1,2-a]pyrazin-4-one] | 2.96 ± 0.66 | 2.21 ± 0.52 | 3.6 ± 0.42 | 1.76 ± 0.1 | 2.47 ± 0.03 | 2.69 ± 2.75 | 184 µM | 197 to 199 °C |
| Nc1cccc(C(=O)C=C2NCC3c4ccccc4CCN3C2=O)c1 (centres unmarked) [Compound 1a, 3-(2-(3-aminophenyl)-2-oxoethylidene)-1,2,3,6,7,11b-hexahydro-4H-pyrazino[2,1-a]isoquinolin-4-one] | 0.56 ± 0.28 | 1.66 ± 0.05 | 2.4 ± 1.18 | 5.64 ± 2.06 | 7.53 ± 1.28 | 7.62 ± 2.79 | > 300 µM | 206 to 208 °C |
| CCCC(=O)C=C1NCC2c3ccccc3CCN2C1=O (centres unmarked) [Compound 2a, 3-(2-oxopentylidene)-1,2,3,6,7,11b-hexahydro-4H-pyrazino[2,1-a]isoquinolin-4-one] | 2.38 ± 0.11 | 2.28 ± 0.78 | 2.55 ± 0.31 | 3.09 ± 1.09 | 6.74 ± 0.67 | 19.6 ± 0.47 | > 300 µM | 158 to 160 °C |
| COc1cccc(C(=O)C=C2NCC3CCCCN3C2=O)c1 (centres unmarked) [Compound 3e, 3-(2-(3-methoxyphenyl)-2-oxoethylidene)octahydro-4H-pyrido[1,2-a]pyrazin-4-one] | 1.4 ± 1.21 | 1.82 ± 1.15 | 6.59 ± 0.77 | 9.16 ± 0.42 | 9.36 ± 3.76 | 1.44 ± 1.75 | > 300 µM | 133 to 135 °C |
| O=C(C=C1NCC2c3ccccc3CCN2C1=O)C1CCCC1 (centres unmarked) [Compound 2d, 3-(2-cyclopentyl-2-oxoethylidene)-1,2,3,6,7,11b-hexahydro-4H-pyrazino[2,1-a]isoquinolin-4-one] | 1.06 ± 0.09 | 3.19 ± 0.52 | 4.06 ± 0.3 | 7.38 ± 0.31 | 5.22 ± 1.28 | 5.83 ± 0.38 | 161 µM | 185 to 187 °C |
| O=C(C=C1NCC2c3ccccc3CCN2C1=O)C1=CCCCC1 (centres unmarked) [Compound 2f, 3-(2-(cyclohex-1-en-1-yl)-2-oxoethylidene)-1,2,3,6,7,11b-hexahydro-4H-pyrazino[2,1-a]isoquinolin-4-one] | 3.27 ± 1.59 | 2.1 ± 0.59 | 5.46 ± 1.83 | 8.45 ± 1.05 | 3.34 ± 1.05 | 3.07 ± 0.43 | 171 µM | 180 to 182 °C |
| O=C(C=C1NCC2c3ccccc3CCN2C1=O)C1CC1 (centres unmarked) [Compound 2b, 3-(2-cyclopropyl-2-oxoethylidene)-1,2,3,6,7,11b-hexahydro-4H-pyrazino[2,1-a]isoquinolin-4-one] | 3.71 ± 1.41 | 3.57 ± 1.08 | 4.85 ± 0.82 | 6.58 ± 2 | 8.24 ± 0.62 | 12.9 ± 1.73 | > 300 µM | 173 to 175 °C |
| COC(=O)/C=C/C(=O)OC [DMF, Dimethyl fumarate, reference compound] | 1.04 ± 0.21 | 1.1 ± 0.11 | 1.4 ± 0.21 | 2.06 ± 0.25 | 3.34 ± 0.52 | 5.31 ± 0.24 | – | – |
| O=C(C=C1NCC2CCCCN2C1=O)c1nccs1 (centres unmarked) [Compound 3i, 3-(2-oxo-2-(thiazol-2-yl)ethylidene)octahydro-4H-pyrido[1,2-a]pyrazin-4-one] | 1.52 ± 0.87 | 4.02 ± 3.05 | 6.41 ± 1.48 | 9.28 ± 0.55 | 13.5 ± 0.8 | 16.7 ± 1.39 | > 300 µM | 151 to 153 °C |
| CC(=O)Nc1ccc(C(=O)C=C2NCC3c4ccccc4CCN3C2=O)cc1 (centres unmarked) [Compound 1d, N-(4-(2-(4-oxo-1,6,7,11b-tetrahydro-2H-pyrazino[2,1-a]isoquinolin-3(4H)-ylidene)acetyl)phenyl)acetamide] | 1.24 ± 0.23 | 1.09 ± 0.72 | 1.49 ± 0.16 | 2.94 ± 1.9 | 7.14 ± 0.34 | 10.07 ± 0.05 | > 300 µM | 279 to 281 °C |
